Experimental data reported in patent US8575368B2, “Proanthocyanidin of cashew apple, composition containing proanthocyanidin, and application thereof” (Nichirei Biosciences, Inc., priority 2008, dated 2013).
Structures can show the parent of a compound that is named as a salt. Where two headings read alike, the source gives them in different places.

Assays:
[1] = molecular target: lipase from Pseudomonas sp. (type XIII); test: Bacterial lipase inhibitory activity test (4-methylumbelliferyl oleate fluorescence); assay type: biochemical; details: 0.1 μg/ml lipase solution
Description: In order to extensively evaluate lipase inhibitory activities of the product of the present invention and of a plurality of known components, lipase derived from commercially available bacteria of Pseudomonas (Pseudomonas sp.) was used. Pseudomonas is a […] of gram-negative aerobic bacteria. A representative example of well-known bacteria is P. aeruginosa. In the experiment, lipase from Pseudomonas sp. (type XIII, ≧15 units/solid, L9518, Sigma-Aldrich Japan) was used. This lipase is a very potent enzyme. From the preliminary inquiry to the inhibitory activity test, 0.1 μg/ml of a lipase solution was used. In the experiment, fractions obtained in Examples 2 and 3 containing proanthocyanidin polymers derived from cashew apple of the present invention were subjected to the assay. The following reagent was used as a control sample to assay lipase inhibitory activity.
Assay was carried out in accordance with Non-Patent Document 2 (J. Agric. Food Chem., 2007, 55, 4604-4609). A specimen diluent and a blank solution (a specimen diluent) were added to a 96-well fluorescence plate and then at 25 μl/well. A lipase solution prepared with the use of PBS(−) (lipase from Pseudomonas sp. Type XIII, SIGMA) was added to the test of the present invention at 25 μl/well and PBS(−) was added to the blind test group at 25 μl/well. A 0.1 mM fluorescent substrate solution (4-methylumbelliferyl oleate, Fluka) prepared with the use of PBS(−) was added thereto at 50 μl/well, and the reaction was then allowed to proceed for 20 minutes. A 0.1 M sodium citrate solution (pH 4.2) was added as a reaction terminator at 100 μl/well, and fluorescence intensity was assayed using a fluorescence plate reader (Ex 365 nm, Em 450 nm). Lipase inhibitory activity was determined by the following formula. 3,4-Dihydroxycinnamic acid and gallic acid were dissolved in an aqueous solution of 10% methanol, and a blank solvent was subjected to the assay with the use of an aqueous methanol solution at the same concentration.
<Calculation Formula> Lipase inhibitory activity(%)=(1−(A−B)/(C−D))×100 A: fluorescence intensity in the blind test using a sample solution B: fluorescence intensity in the test of the present invention using a sample solution C: fluorescence intensity in the blind test using a blank solution (a dilute solvent) D: fluorescence intensity in the test of the present invention using a blank solution (a dilute solvent)
Enzyme inhibitory activities of the sample solutions were assayed at a plurality of concentrations, the data were logarithmically plotted, and the concentration at which 50% of lipase activity was inhibited (IC50) was determined by the least-square method.
Using the powders prepared by fractionation via ultrafiltration and lyophilization in Example 3, the relationship between the molecular weight and the bacterial lipase inhibitory activity was examined. The lipase inhibitory activity test was carried out in the manner described in Example 9.

[2] = Assay of antioxidation activity via DPPH radical elimination; details: 30° C., 30 minutes, absorbance 517 nm
Protocol: A solution of a stable radical, diphenyl-p-picrylhydradil (DPPH), in ethanol was used to evaluate the antioxidation activity. Ethanol (1,200 μl) and 400 μl of specimens (adjusted at an arbitrary concentration) were mixed with 1,600 μl of 250 mM acetate buffer (pH 5.5), and the mixture was preincubated at 30° C. for 5 minutes. A 500 μM DPPH/ethanol solution (800 μl) was added thereto, the resulting mixture was allowed to stand at 30° C. for 30 minutes, and the absorbance at 517 nm was assayed. When the control sample dissolved in ethanol was used as a specimen, 800 μl of ethanol, 400 μl of a solution of specimens in ethanol, and 400 μl of purified water were mixed, and the resulting mixture was preincubated at 30° C. for 5 minutes. A 500 μM DPPH/ethanol solution (800 μl) was added thereto, the resulting mixture was allowed to stand at 30° C. for 30 minutes, and the absorbance at 517 nm was assayed. A solution prepared in the same manner except for the use of purified water was used as a control sample. Based on the absorbance assayed, the percentage of radical elimination was determined by the following formula. Radical elimination(%)=(1−[absorbance of sample]/[absorbance of control])×100
The concentration of the sample in the sample solution was gradually changed to determine the percentage of radical elimination, the concentration of the sample solution at which the percentage of DPPH radical elimination became 50% was determined, and the determined value was designated as the 50% elimination concentration of DPPH radicals. As the value is reduced, the capacity for radical elimination is enhanced.

[3] = molecular target: T1, lipase from porcine pancreas Type II (Sus scrofa, UniProt P00591); test: Lipase inhibitory activity assay (4-methylumbelliferyl oleate fluorescence); assay type: biochemical; details: final specimen concentration; porcine pancreatic lipase
T1 construct: lipase from porcine pancreas Type II, SIGMA; purchased SIGMA; host or cells: porcine pancreas
Protocol: Assay was carried out in accordance with Non-Patent Document 2 (J. Agric. Food Chem., 2007, 55, 4604-4609). A specimen solution was added to a 96-well fluorescence plate at 25 μl/well. A lipase solution (lipase from porcine pancreas Type II, SIGMA) prepared with the use of PBS(−) was added to the plate of the test group at 25 μl/well and PBS(−) was added to the plate of the blind test group at 25 μl/well. A 0.1 mM fluorescent substrate solution (4-methylumbelliferyl oleate, Fluka) prepared with the use of PBS(−) was added thereto at 50 μl/well, and the reaction was then allowed to proceed for 20 minutes. A 0.1 M sodium citrate solution (pH 4.2) was added as a reaction terminator at 100 μl/well, and fluorescence intensity was assayed using a fluorescence plate reader (Ex 365 nm, Em 450 nm). In a blank test, samples of the test group and of the blind test group were prepared and fluorescence intensity was assayed in the same manner as described above, except that the same amount of a solvent used for the preparation of a specimen solution was used instead of “specimen solution.” The percentage of lipase inhibition was determined by the following formula. […]

lipase [4] = molecular target: T2, lipase (Sus scrofa, UniProt P00591); details: Non-Patent Document 2; read-out: Lipase inhibitory activity (IC50) (converted); cited from earlier work
T2 sequence (P00591 1-450): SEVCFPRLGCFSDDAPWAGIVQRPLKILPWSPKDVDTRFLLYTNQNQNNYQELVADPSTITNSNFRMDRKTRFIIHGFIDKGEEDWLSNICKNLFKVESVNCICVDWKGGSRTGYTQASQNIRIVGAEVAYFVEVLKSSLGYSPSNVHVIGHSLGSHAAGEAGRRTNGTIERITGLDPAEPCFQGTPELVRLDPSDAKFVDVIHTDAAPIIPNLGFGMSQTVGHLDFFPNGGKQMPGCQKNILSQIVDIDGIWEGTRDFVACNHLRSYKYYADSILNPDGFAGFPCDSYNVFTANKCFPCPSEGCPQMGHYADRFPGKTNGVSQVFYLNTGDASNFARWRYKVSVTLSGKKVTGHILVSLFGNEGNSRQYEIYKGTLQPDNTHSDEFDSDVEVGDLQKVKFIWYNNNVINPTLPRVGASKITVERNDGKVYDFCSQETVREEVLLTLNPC

lipase [5] = molecular target: T2, lipase; details: cited from earlier work; for IC50: read-out: Lipase inhibitory activity (IC50)

| Molecule | Activity of bacterial lipase inhibition (IC50) [1] [µg/mL] | 50% Elimination concentration of DPPH radicals [2] [µg/mL] | further results |
| --- | --- | --- | --- |
| O=C(O)C=Cc1ccc(O)c(O)c1 [3,4-Dihydroxycinnamic acid] | 42.3 | 2.8 | – |
| O=C(/C=C/c1ccc(O)c(O)c1)O[C@@H]1C[C@](O)(C(=O)O)C[C@@H](O)[C@H]1O [Chlorogenic acid, chlorogenic acid] | 69.2 | – | IC50 [3]: 219 µM; IC50 (lipase [4]): 169 µM |
| O.O=C(O)c1cc(O)c(O)c(O)c1 [Gallic acid monohydrate] | 574.2 | 1.2 | – |
| O=C1O[C@H]([C@@H](O)CO)C(O)=C1O [L(+)-ascorbic acid] | – | 3.9 | – |
| CN(C)[C@@H]1C(O)=C(C(N)=O)C(=O)[C@@]2(O)C(O)=C3C(=O)c4c(O)cccc4[C@@](C)(O)[C@H]3C[C@@H]12 [Tetracycline hydrochloride] | 134.6 | – | – |
| (−)-epigallocatechin 3-O-gallate [Epigallocatechin gallate] | 918.8 | 2.0 | Lipase inhibitory activity (IC50) [3]: 20.0 µg/mL; IC50 (lipase [5]; Patent Document 4): 0.284 µM; Lipase inhibitory activity (IC50) (lipase [5]; Patent Document 5, value in brackets): 0.16 µg/mL; IC50 (lipase [5]; Patent Document 5): 0.349 µM |
